From patent US20040048279A1, “Method for detecting methylation states for a toxicological diagnostic” (priority 2000, published 2004)

Key:
HT29-P208 cells = assay: Methylation state of CpG positions by bisulfite treatment, multiplex PCR and oligonucleotide array hybridization in treated HT29-P208 cells; type: cell-based; details: for methylation state of selected CpGs of the genes TGF-a, EGFR, ANT1 and E-cadherin (CG signal / (CG+TG signal)) / methylation state of selected CpG positions of the genes EGFR, ANT1 and CDC25A (CG signal / (CG+TG signal)): treated versus untreated; for methylation state of selected CpGs of the genes TGF-a, EGFR, ANT1 and E-cadherin (CG signal / (CG+TG signal)): FIG. 3; for differences in methylation of 64 gene fragments versus controls: treatment time 6 h (data not shown); for degree of methylation of various CpG positions of 64 gene fragments, in contrast to controls (HT29-P208 in medium): treatment time 24 h, 10 ng/ml TGF-b1 or 10 ng/ml IL-1b in medium, FIGS. 1 and 2, p<0.05; for methylation state of selected CpG positions of the genes EGFR, ANT1 and CDC25A (CG signal / (CG+TG signal)): trichostatin 50 nM or milrinone 50 μM, FIG. 4
Description: HT-29 P208 cells (5×10^4 cells/ml) were seeded in culture dishes (33×5 cm) and grown for 5 days in DMEM/Ham's F-12 medium, which was supplemented with 10% fetal calf serum at 37° C. and 5% CO2, up to 95% confluence (Campbell-Thompson, M. and Bhardwaj, B., Cancer Research 2001, 61, 632-640). The cells were then incubated for 24 h in medium not containing calf serum. After repeated change of medium, the cells were incubated in 3 parallel cultures for 6 h and 24 h, either with medium, medium supplemented with 10 ng/ml TGF-b1, medium supplemented with 10 ng/ml IL-1b, medium supplemented with trichostatin (50 nM) or medium supplemented with milrinone (50 μM). The cells freed of medium were treated with trypsin, centrifuged, and resuspended in 200 μl of PBS buffer (Fritsch and Maniatis eds., Molecular Cloning: A Laboratory Manual, 1989), and stored at −20° C. The chromosomal DNA was purified with a QIAamp Kit according to the manufacturer's instructions (Qiagen, Hilden).
The DNA samples (20 ng) were digested with the restriction enzyme Mss1. The digested DNA was chemically converted with hydrogen sulfite (bisulfite, disulfite) and a radical trap at elevated temperature (DE 10050942). In this way, after alkaline hydrolysis, all unmethylated cytosines are converted to uracil, which correspond in their base-pairing behavior to thymidine. In contrast, 5-methylcytosine is not modified under these conditions.
The chemically pretreated DNA was then amplified with the use of a heat-stable DNA polymerase in a polymerase chain reaction. The multiplex PCR reactions were conducted with a thermocycler (Eppendorf GmbH) with the use of 10 ng of bisulfite-treated DNA, each time with […] of primer oligonucleotides (mixture of up to 32 individual primer oligonucleotides; see Table 3), 800 μM dNTPs and 4.5 mM magnesium chloride. The cycler program was as follows: step 1, 14 min at 96° C.; step 2, 60 sec 96° C.; step 3, 45 sec 55° C.; step 4, 75 sec 72° C.; step 5, 10 min at 72° C.; steps 2 to 4 were repeated 39 times.
The DNA fragments of 64 different genes listed in Table 3 were amplified with 6 sets of multiplex PCR (mPCR) and with bisulfite-treated DNA as the template, as described above. The mPCR reactions (I, J, K, L, M, N) of the genomic, bisulfite-treated DNA were conducted with the combination of primer oligonucleotides as listed in Table 3. It is also possible, however, to use other primer oligonucleotides in the same way for the amplification of the genomic, bisulfite-treated DNA. The primer pairs listed in Table 1, however, are particularly preferred.
The amplificates produced in Example 2 were hybridized with 512 oligonucleotides, which were bound to a solid phase (Model, F. and Adorjian, P., Bioinformatics 2001, 17 Suppl. 1, 157-164). The solid phase loaded with oligonucleotides is named an oligonucleotide array below. The detectability of the hybridization product is based on primer oligonucleotides fluorescently labeled with Cy5, which were used for the amplification. A hybridization reaction of the amplified DNA with the oligonucleotide, for example, GTTTTTTTCGTTTTAGAG (Sequence ID 6), occurs only when a methylated cytosine is present at the said site of the bisulfite-treated DNA. Thus, the methylation state of the specific cytosine can be determined by means of the hybridization product. In order to verify the methylation state of said position, an oligonucleotide is found on the oligonucleotide array, which permits it to detect the unmethylated cytosine. This oligonucleotide is identical to the oligonucleotide which was previously used for the analysis of the methylated status of the sample, with the exception that the oligonucleotide bears a thymine base instead of a cytosine base at the position to be analyzed, e.g., GTTTTTTTTGTTTTAGAG (Sequence ID 7). Thus, a hybridization reaction occurs only if an unmethylated cytosine is present at the position to be analyzed. […]

Cyp1a1 = details: mice exposed to the substance; Arch Biochem Biophys 2000;376(1):66-73; cited from earlier work

Row | Molecule | methylation state of selected CpGs of the genes TGF-a, EGFR, ANT1 and E-cadherin (CG signal / (CG+TG signal)) (HT29-P208 cells) | differences in methylation of 64 gene fragments versus controls (HT29-P208 cells) | degree of methylation of various CpG positions of 64 gene fragments, in contrast to controls (HT29-P208 in medium) (HT29-P208 cells) | methylation state of selected CpG positions of the genes EGFR, ANT1 and CDC25A (CG signal / (CG+TG signal)) (HT29-P208 cells) | Cyp1a1 gene expression after exposure (Cyp1a1)
1 | IL-1b: IL-1b (interleukin), exogenous cytokine added to medium at 10 ng/ml | no change or to an increase in the methylation state | no significant differences in methylation | greater degree of methylation | – | –
2 | Cc1[nH]c(=O)c(C#N)cc1-c1ccncc1 [milrinone, reference compound] | – | – | – | reduction in the methylation state | –
3 | TGF-b1: TGF-b1 (transforming growth factor), exogenous cytokine added to medium at 10 ng/ml | significant reduction of the methylation state | no significant differences in methylation | smaller degree of methylation | – | –
4 | O=c1cc(-c2ccccc2)oc2ccc3ccccc3c12 [beta-naphthoflavone] | – | – | – | – | induced
5 | CC(/C=C/C(=O)NO)=C\[C@@H](C)C(=O)c1ccc(N(C)C)cc1 [trichostatin, reference compound] | – | – | – | increase | –
